Experiment in all cases: growth of human tumour cells (NCI), 48 h
For test [1], the system named is HS 578T breast.
Test [2] deals with MOLT-4 leukemia.
For test [3], the system named is MDA-MB-435.
Test [4] concerns OVCAR-3 ovarian.
Test [5] deals with SNB-75 CNS.
The test system of test [6] is PC-3 prostate.
For test [7], the system named is SK-MEL-5 melanoma.
Test [8] relates to HOP-62 NSCLC.
In test [9] the test system is UACC-62 melanoma.
The subject of test [10] is CCRF-CEM leukemia.
Test [11] deals with EKVX NSCLC.
The subject of test [12] is HCT-15 colon.
In test [13] the test system is CAKI-1 renal.
In test [14] the test system is SN12C renal.
Test [15] has as its system A549 NSCLC.
For test [16], the system named is RXF 393 renal.
For test [17], the system named is SK-MEL-2 melanoma.
In test [18] the test system is NCI-H522 lung.
Test [19] deals with M14 melanoma.
Test [20] deals with HL-60(TB) leukemia.

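Cultured in 96-well plates, cells were exposed to test compound for 48 hours across five concentrations. TGI marks complete inhibition of growth.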

Take `O=C(N[C@@H](c1ccccc1)[C@@H](O)C(=O)OCc1ccc([N+](=O)[O-])cc1)c1ccccc1`: the TGI is over 100 µM in test [1]; 76 µM in test [2]; over 100 µM in test [3]; over 100 µM in [4]; over 100 µM in test [5]; over 100 µM in [6]. The TGI in test [7], in test [8], in test [9], in test [10], in test [11] and in [12] was over 100 µM each time. In addition, the TGI in test [13], in [14], in test [15], in test [16], in test [17] and in [18] was over 100 µM each time.

Regarding `CCOC(=O)c1c(NC(=O)OC)c(C#N)c2n1CCCCC2`, the TGI in [1], in test [2], in test [3], in test [5], in test [6] and in test [7] was over 100 µM in each case. The TGI in test [8], in [9], in test [19], in test [10], in [20] and in test [11] was over 100 µM throughout. Besides, the TGI in [12], in [13], in test [16] and in test [17] was over 100 µM each time.

For `CC(C)N(C(=O)C1(O)c2ccccc2C=Cc2ccccc21)C(C)C`, the TGI in [1] was 68.8 µM; in [2], 82.8 µM; in [3], over 100 µM; in test [4], 31.3 µM; in [6] it was 28.9 µM; in test [7] it was 29.8 µM. In addition, the TGI amounted to 35.6 µM in [8]; 29.5 µM in [9]; 40.1 µM in test [19]; 32.5 µM in test [11]; 44.6 µM in test [12]; 57.7 µM in test [13]. For the same molecule, the TGI is 31.4 µM in test [14], 48.3 µM in [15], 30.7 µM in [17] and 25.3 µM in test [18].

Turning to `COC(=O)C1(C(=O)OC)C/C(C)=C(/C)SCCCS1`, the TGI in [1], in [2], in [3], in test [4], in test [5] and in test [6] was over 100 µM in each case. The TGI in test [7], in test [8], in [9], in test [19], in test [10] and in test [11] was over 100 µM each time. Moreover, the TGI in test [12], in test [13], in [14], in [15], in test [16] and in test [17] was over 100 µM in each case. This molecule also returned a TGI in test [18] of over 100 µM.

As to `Cc1cn(C2CC(O)C(CO[Si](C)(C)C(C)(C)C)OC2OC(C)C)c(=O)[nH]c1=O` (stereo not drawn), the TGI is over 100 µM in test [1]; over 100 µM in test [3]; 46.3 µM in [4]; over 100 µM in test [5]; over 100 µM in test [6]; 93.9 µM in test [7]. For the same molecule, the TGI in test [9] was over 100 µM; in [19], 92.5 µM; in test [10], 61.1 µM; in test [11], over 100 µM; in test [12], over 100 µM; in test [13] it was over 100 µM. The TGI was over 100 µM in test [14]; over 100 µM in [15]; 88.7 µM in test [16]; over 100 µM in test [17]; 89 µM in [18].

Regarding `C#CC(C)(C)OC(=O)C(=[N+]=[N-])C(C)=O`, the TGI in [1], in [2], in [3], in test [4], in test [5] and in [6] was over 10 µM throughout. In addition, the TGI in [7], in test [8], in test [9], in test [19], in test [10] and in [20] was over 10 µM each time. Besides, the TGI in [11], in test [12], in test [14], in [15], in test [16] and in test [17] was over 10 µM throughout.

For `CCC(=O)O[C@H]1CC[C@H]2[C@@H]3CCC4=C/C(=N/OC(=O)c5cccc6c(=O)c7ccccc7[nH]c56)CC[C@]4(C)[C@H]3CC[C@]12C`, the TGI in test [1] was over 100 µM; in test [2] it was 53.4 µM; in test [3], 99.6 µM; in test [4], 38.4 µM; in test [5], over 100 µM; in test [6], over 100 µM. Also, the TGI in test [7] was over 100 µM; in [8] it was over 100 µM; in [9] it was over 100 µM; in [19] it was 77.7 µM; in [10], 57.5 µM; in [11] it was over 100 µM. The TGI in test [12] was 61.9 µM; in [14], over 100 µM; in test [15], over 100 µM; in test [16], 45.4 µM; in test [17] it was 75.5 µM; in [18], 56.1 µM.

Regarding `CNC(=S)N=Nc1c(O)n(CN2CCOCC2)c2ccc([N+](=O)[O-])cc12`, the TGI in [1] is 73 µM; in test [2], over 100 µM; in test [3], over 100 µM; in test [4], 34.5 µM; in [6], 57.5 µM; in [7], over 100 µM. Also, the TGI in test [8] was 28.2 µM; in [9] it was 33.3 µM; in test [19], over 100 µM; in [10], 71.8 µM; in test [20], 69.8 µM; in [11], 43.7 µM. Further, the TGI in [12] was 26.6 µM; in test [13] it was 64.1 µM; in test [14], 38.5 µM; in test [15] it was over 100 µM; in test [16], 30 µM; in test [17] it was 21.2 µM.

On to `O=C(Oc1ccccc1)N1c2ccccc2[C@@]23O[C@]24CCC[C@H]3C#C/C=C\C#C[C@H]14`, for which the TGI was 47.1 µM in [1]; over 100 µM in test [2]; 36.7 µM in [3]; 26.1 µM in test [4]; 23.3 µM in [5]; 23.8 µM in test [6]. Besides, the TGI in [8] is 25.6 µM; in [9], 23.6 µM; in test [19], 30.6 µM; in [10], over 100 µM; in test [20], 26.1 µM; in [11] it was 31.8 µM. Besides, the TGI in [12] came to 25.9 µM; in test [13], 25.7 µM; in [14], 26.6 µM; in test [15] it was 25 µM; in [16], 21.8 µM; in test [17], 25.5 µM.

Take `COc1ccc(-c2nc(-c3cc4c(ccc5ccccc54)oc3=O)cs2)cc1`: the TGI in test [1], in [2], in test [3], in test [5], in test [6] and in [7] was over 100 µM in each case. Moreover, the TGI in test [8], in test [9], in [19], in [10], in test [20] and in [11] was over 100 µM in each case. For the same molecule, the TGI in [12], in test [13], in test [14], in [15], in [16] and in test [17] was over 100 µM throughout.

Take `COc1ccc2[nH]c3c(c2c1)CC(=S)N1CCCC(CC3=O)C1` (stereo not drawn): the TGI in test [1], in [3], in test [4], in test [5], in test [6] and in test [7] was over 100 µM each time. For the same molecule, the TGI in [8], in test [9], in test [19], in [10], in [11] and in [12] was over 100 µM each time. Also, the TGI in test [13] is over 100 µM; in test [14], over 100 µM; in test [15], over 100 µM; in [16], 81 µM; in test [17], 81.2 µM.

Consider `O=c1oc2ccccc2cc1-c1cn2ccccc2n1`, for which the TGI in [1] was 53.5 µM; in test [2], over 80.8 µM; in test [3], 14.5 µM; in test [4] it was 14.3 µM; in test [5], 6.37 µM; in [6] it was 12.8 µM. Also, the TGI was 20.1 µM in test [7]; 14.8 µM in test [8]; 15.8 µM in test [9]; 28.9 µM in [19]; over 22.5 µM in test [10]; 29.3 µM in [11]. Besides, the TGI stood at 38.9 µM in test [12]; 20.5 µM in test [13]; 17.7 µM in test [14]; 21 µM in [15]; 13.8 µM in test [16]; 14.4 µM in test [17]. For the same molecule, the TGI in test [18] was determined as 17.3 µM.

For the molecule `Cc1ccccc1N/C(=C(/C(Cl)=C(Cl)Cl)[N+](=O)[O-])n1nnc2ccccc21`, the TGI in test [1] is 27.1 µM; in test [2] it was over 100 µM; in test [3], 30.1 µM; in [4] it was 30.8 µM; in test [5], 34.2 µM; in [6] it was 80.7 µM. Besides, the TGI was 30.6 µM in [8]; 71.9 µM in [9]; 64.9 µM in [19]; over 100 µM in [10]; 40.9 µM in test [11]; 31.6 µM in test [12]. Also, the TGI in [13] was 34.9 µM; in test [14], 31.1 µM; in test [15], over 100 µM; in test [17], 33 µM.

Take `COC(=O)c1c(C#N)[nH]c(-c2ccsc2)c1C(=O)OC`: the TGI in [1], in [2], in test [3], in [4], in [5] and in [6] was over 100 µM throughout. Further, the TGI in test [7], in test [8], in test [9], in [19], in test [10] and in test [11] was over 100 µM in each case. The TGI in test [13], in test [14], in test [15], in test [16], in test [17] and in test [18] was over 100 µM each time.

As for `c1ccc(NN=C(c2ccccn2)c2ccccn2)nc1`, the TGI in [1], in test [3], in test [4], in [5], in test [6] and in test [7] was over 100 µM each time. Also, the TGI in test [11] was over 100 µM; in [12], over 100 µM; in test [13], over 100 µM; in [14], over 100 µM; in [15], over 21 µM; in [16], over 100 µM. Besides, the TGI in test [17] and in test [18] was over 100 µM in each case.

`CN(C)CC1CCC/C(=C\c2ccc(Cl)cc2)C1=O` (stereo not drawn): the TGI in [1] was 12.3 µM; in test [2], over 21.7 µM; in [3] it was 9.22 µM; in [4], 12.1 µM; in [5] it was 14.9 µM; in test [6], 8 µM. Further, the TGI worked out at 12.3 µM in test [7]; 34.2 µM in test [8]; 4.5 µM in test [9]; 6.15 µM in test [19]; 3.39 µM in test [10]; 25.7 µM in [11]. Moreover, the TGI in test [12] came out at 4.86 µM; in [13], 3.72 µM; in [14] it was 8.55 µM; in test [15], 32.4 µM; in test [17] it was 2.05 µM; in test [18] it was 3.27 µM.
